From patent US5072032A, “Preparation and use of thiophosphonates and thio-analogues of phosphonoformic acid” (priority 1989, dated 1991)
Like-named read-outs stand apart in the source and are kept apart here.

Legend:
HSV-2 DNA polymerase = biological target: T1, HSV-2 DNA polymerase (Human herpesvirus 2, UniProt P89453); assay: Viral polymerase inhibition, HSV-2; format: biochemical
T1 construct: made in house
Text: (§1) Viral DNA polymerases (HSV-1, HSV-2, EBV) were purified by previously published methods (Derce, D. K. F. Bastow, and Y. C. Cheng (1982) J. Boil. Chem. 257:10251-10260; Ostrander, M., and Y. C. Cheng (1980) Biochim. Biophys. Acta 609:232-245; Tan, R. S., A. Datta. and Y. C. Cheng (1982) J. Virol. 44:893-899). These procedures generally included sequential chromatography on DEAE-cellulose. HIV reverse transcriptase was purified by antibody affinity column chromatography as descrbed (Starnes. M. C. and Y. C. Cheng (1989) J. Biol. Chem. 264:7073-7077). The purified enzymes were dialyzed against and stored in 50 mM Tris-HCl (pH 7.5) containing 1 mM each of DTT, EDTA and PMSF plus 30% glycerol. Mammalian DNA polymerases alpha, beta, gamma, and delta were partially purified from K562 celles (chronic myelogenous leukemia tissue culture line). Briefly, washed cell pellets were extracted and passed throgh DEAE-cellulose in the presence of 300 mM KPO4 (pH 7.5) as previously described (Starnes, M. C., and Y. C. Cheng (1987) J. Biol. Chem 282:988-981) to remove DNA. The column flow-through fractions were dialyzed against buffer which contained 50 mM Tris-HCl (pH 7.5), and fractionated on a single-stranded DNA-cellulose column with a 0-1M KCl gradient.
(§2) Standard assays were run at 37° C. and contained: 50 mM Tris, pH b 8.0, 0.5 mM DTT, 8 mM MgCl2, 100 μg/mL BSA, 150 μg/mL gapped calf thymus DNA, 100 μM each dATP, dCTP, dGTP, 10 .parallel.M [^3 H]-dTTP, and 1-5 .parallel.L enzyme in a final volume of 50 .parallel.L. Modified assays for pH dependence inhibition studies with PFA (1) and α--oxo phosphonates (4 and 5) contained 50 mM Hepes, pH 8.2-6.5, 8 mM MgCl2, 100 mM KCl, 100 μg/ml BSA, 0.5 A260 units/ml of poly(rA).(dT)10, 100 μM [^3 H]dTTP, and 1.5 .parallel.L enzyme in a final volume of 50 μL. Samples were processed as described above.

EBV DNA polymerase = biological target: T2, EBV DNA polymerase (Epstein-Barr virus, UniProt P03198); assay: Viral polymerase inhibition, EBV; format: biochemical
T2 construct: made in house
Text: as §1, §2

HV-6 polymerase = HV-6 polymerase (Human herpesvirus 6A, UniProt P28857); assay: Viral polymerase inhibition, HV-6; format: biochemical, Herpes Virus 6
human DNA polymerase β = biological target: T3, human DNA polymerase β (Homo sapiens, UniProt P06746); assay: Human DNA polymerase inhibition, beta; format: biochemical; settings: for remaining activity at 100 µM: read-out: % Control at 100 μM ± S.D.
T3 construct: Mammalian DNA polymerases alpha, beta, gamma, and delta were partially purified from K562 celles; endogenous in cells; host or cells: K562 (chronic myelogenous leukemia tissue culture line)
Text: as §1
(§3) In accordance with the teaching of the present invention similar enzyme inhibition assays were also conducted with respect to mammalian enzymes, more particularly, human DNA polymerase.

human DNA polymerase δ = assay: Human DNA polymerase inhibition, delta; format: biochemical; settings: Pol δ, "activated" DNA; for IC50: read-out: ID50 (the source's name)
Text: as §1, §3

HIV-1 (HTLV-IIIB) = assay: HIV inhibition in cell culture, p24 antigen capture assay in H9 lymphocytes; format: cell-based
Description: (§4) In addition to testing the activity of TPFA against HIV enzyme, the activity against the virus itself was also determined in accordance with the following protocol. The experimental protocol involved incubatino of H9 lymphocytes (3.5×10^6 cells/ml) in the presence or absence of HIV-1 (HTLV-IIIB) for one hour at 37° C. Cells were washed thoroughly to remove unabsorbed virions and re-suspended at 4×10^5 cells/ml in culture medium. Aliquots (1 ml) were placed in wells of 24 well culture plates containing any equal volume of test compound (diluted in culture medium). After incubation for three days at 37° C., cell density of uninfected cultures was determined to assess toxicity of the test compound. A p24 antigen capture was used to determine the level of HIV infection in HIV treated cultures. The ability of test compounds to inhibit HIV replication was measured at different concentrations relative to infected, untreated cultures. Test compounds were considered to be active if p24 levels were <70% of infected, untreated cultures. Cytotoxicity in uninfect4ed H9 cells was not detected.

[1] = Toxicity: cell density of uninfected H9 cultures; format: cell-based; settings: human, h9 cells, 3 days, read-out: Cell Survival (%)
Description: as §4

uninfected H9 cells = assay: Toxicity: cell density of uninfected H9 cultures; format: cell-based; settings: 3 days
Description: as §4

[2] = Human immunodeficiency virus 1, IIIB, H9, 72 h, read-out: p24 Ave (%)

T1 sequence (P89453 whole entry): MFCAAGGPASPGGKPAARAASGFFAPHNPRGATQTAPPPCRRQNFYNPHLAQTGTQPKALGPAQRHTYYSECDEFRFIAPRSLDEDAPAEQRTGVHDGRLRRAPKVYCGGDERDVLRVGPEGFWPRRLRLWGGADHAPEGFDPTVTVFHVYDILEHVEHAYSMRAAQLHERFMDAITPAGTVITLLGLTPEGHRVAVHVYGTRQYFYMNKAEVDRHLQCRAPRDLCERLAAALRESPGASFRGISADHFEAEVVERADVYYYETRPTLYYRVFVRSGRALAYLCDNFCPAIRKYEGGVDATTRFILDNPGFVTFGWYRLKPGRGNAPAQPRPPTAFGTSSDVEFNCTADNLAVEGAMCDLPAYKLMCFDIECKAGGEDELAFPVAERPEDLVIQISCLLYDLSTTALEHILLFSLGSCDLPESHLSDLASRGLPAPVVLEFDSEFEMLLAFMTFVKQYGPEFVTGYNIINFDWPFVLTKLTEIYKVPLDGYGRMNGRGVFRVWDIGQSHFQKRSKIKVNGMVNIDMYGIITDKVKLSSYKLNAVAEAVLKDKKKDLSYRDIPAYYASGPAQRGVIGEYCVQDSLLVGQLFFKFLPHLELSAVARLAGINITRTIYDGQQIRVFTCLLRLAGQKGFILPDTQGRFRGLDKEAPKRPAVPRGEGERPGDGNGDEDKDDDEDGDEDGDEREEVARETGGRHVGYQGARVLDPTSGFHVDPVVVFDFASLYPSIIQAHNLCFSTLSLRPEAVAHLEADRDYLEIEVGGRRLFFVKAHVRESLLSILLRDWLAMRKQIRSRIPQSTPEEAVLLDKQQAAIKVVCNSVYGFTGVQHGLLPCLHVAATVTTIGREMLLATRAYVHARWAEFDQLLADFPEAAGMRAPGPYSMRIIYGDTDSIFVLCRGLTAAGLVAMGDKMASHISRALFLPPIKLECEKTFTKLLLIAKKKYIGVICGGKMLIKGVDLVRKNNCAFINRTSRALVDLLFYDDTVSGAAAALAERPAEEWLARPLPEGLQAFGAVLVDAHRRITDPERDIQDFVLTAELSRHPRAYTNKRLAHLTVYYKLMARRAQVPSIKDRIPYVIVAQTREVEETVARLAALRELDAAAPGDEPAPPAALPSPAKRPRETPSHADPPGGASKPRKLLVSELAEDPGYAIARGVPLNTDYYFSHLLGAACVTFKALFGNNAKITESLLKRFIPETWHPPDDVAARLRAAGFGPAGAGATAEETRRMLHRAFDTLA
Chain of HV-6 polymerase (P28857 whole entry): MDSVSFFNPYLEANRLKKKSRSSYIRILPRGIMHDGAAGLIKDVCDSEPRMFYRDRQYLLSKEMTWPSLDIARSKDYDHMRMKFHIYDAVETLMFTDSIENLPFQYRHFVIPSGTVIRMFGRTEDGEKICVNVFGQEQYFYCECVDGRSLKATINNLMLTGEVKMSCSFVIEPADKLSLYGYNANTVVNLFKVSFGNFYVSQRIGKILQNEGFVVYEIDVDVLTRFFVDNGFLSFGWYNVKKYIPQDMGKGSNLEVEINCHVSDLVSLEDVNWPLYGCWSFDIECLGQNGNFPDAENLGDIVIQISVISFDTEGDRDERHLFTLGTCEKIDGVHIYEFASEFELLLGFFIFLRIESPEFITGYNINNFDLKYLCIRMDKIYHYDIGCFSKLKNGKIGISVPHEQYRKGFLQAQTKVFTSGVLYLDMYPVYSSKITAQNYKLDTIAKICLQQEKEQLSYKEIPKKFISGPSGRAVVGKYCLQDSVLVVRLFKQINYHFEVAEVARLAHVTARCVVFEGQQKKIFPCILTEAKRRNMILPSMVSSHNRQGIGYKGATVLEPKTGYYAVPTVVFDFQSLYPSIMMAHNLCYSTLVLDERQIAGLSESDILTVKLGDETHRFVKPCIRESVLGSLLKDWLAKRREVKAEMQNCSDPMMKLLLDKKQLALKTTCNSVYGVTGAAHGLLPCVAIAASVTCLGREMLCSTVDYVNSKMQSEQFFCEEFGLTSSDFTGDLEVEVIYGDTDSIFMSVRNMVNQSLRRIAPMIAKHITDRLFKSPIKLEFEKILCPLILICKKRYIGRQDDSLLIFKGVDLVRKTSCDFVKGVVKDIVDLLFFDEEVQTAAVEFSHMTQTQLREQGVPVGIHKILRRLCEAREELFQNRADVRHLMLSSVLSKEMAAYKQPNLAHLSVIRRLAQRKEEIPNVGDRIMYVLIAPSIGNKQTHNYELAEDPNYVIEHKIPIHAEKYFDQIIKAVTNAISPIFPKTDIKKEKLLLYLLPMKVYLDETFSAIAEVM
T2 sequence (P03198 whole entry): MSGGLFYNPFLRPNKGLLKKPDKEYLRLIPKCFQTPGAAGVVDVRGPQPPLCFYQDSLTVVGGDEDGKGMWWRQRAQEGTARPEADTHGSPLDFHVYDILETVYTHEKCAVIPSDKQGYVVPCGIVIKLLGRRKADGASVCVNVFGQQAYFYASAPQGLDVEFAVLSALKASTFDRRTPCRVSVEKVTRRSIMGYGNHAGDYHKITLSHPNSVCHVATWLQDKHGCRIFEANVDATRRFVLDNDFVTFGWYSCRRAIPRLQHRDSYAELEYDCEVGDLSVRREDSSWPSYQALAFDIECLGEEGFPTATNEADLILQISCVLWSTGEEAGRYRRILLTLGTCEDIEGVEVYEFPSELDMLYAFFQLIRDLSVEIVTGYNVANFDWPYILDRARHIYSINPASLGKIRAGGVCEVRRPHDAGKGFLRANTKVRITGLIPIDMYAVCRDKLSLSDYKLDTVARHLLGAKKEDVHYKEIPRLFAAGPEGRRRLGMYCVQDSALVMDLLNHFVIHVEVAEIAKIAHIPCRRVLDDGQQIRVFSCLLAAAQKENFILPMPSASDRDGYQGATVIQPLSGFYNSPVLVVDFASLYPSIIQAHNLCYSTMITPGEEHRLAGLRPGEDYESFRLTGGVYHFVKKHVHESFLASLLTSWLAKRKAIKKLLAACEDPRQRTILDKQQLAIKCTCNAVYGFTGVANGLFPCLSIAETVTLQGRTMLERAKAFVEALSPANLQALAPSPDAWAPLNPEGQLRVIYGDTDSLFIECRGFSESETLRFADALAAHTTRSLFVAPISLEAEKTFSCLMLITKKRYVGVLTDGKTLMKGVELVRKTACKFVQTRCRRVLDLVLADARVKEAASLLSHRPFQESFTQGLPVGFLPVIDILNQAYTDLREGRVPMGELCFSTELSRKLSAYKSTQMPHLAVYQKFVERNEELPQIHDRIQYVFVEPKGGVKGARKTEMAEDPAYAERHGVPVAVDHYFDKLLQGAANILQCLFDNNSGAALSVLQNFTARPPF

## O=C(O)P(O)(O)=S [TPFA, thiophosphonoformic acid]
HSV-2 DNA polymerase
  IC50: 11.3 µM
HSV-2 DNA polymerase; HSV-2 enzyme, ratio of ID50 values of Table I
  effectiveness of TPFA relative to PFA: fifteen to twenty times less effective
EBV DNA polymerase
  IC50: 70 µM
EBV DNA polymerase; EBV enzyme, ratio of ID50 values of Table I
  effectiveness of TPFA relative to PFA: more than seventy times less effective
HV-6 polymerase
  IC50: 70 µM
HV-6 polymerase; Herpes Virus 6 enzyme, ratio of ID50 values of Table I
  effectiveness of TPFA relative to PFA: more than seventy times less effective
Human DNA polymerase β
  IC50: > 100 µM
  remaining activity at 100 µM: 91 ± 4%
Human DNA polymerase δ
  % Control at 100 μM ± S.D.: 69 ± 6%
  IC50: > 100 µM
HIV-1 (HTLV-IIIB); [2]
  activity at 0.1 µg/mL: 139%
  activity at 0.5 µg/mL: 117%
  activity at 2 µg/mL: 90%
  activity at 10 µg/mL: 35%
  activity at 50 µg/mL: 0%
  activity at 200 µg/mL: -3%
HIV-1 (HTLV-IIIB); drug conc. 10 μg/mL
  Inhibition Score: ** (**25-49% control p24)
HIV-1 (HTLV-IIIB); drug conc. 50 μg/mL
  Inhibition Score: *** (***<25% control p24)
HIV-1 (HTLV-IIIB); drug conc. 200 μg/mL
  Inhibition Score: *** (***<25% control p24)
[1]; drug conc. 0.1 μg/mL
  viability at 72 h: 113%
[1]; drug conc. 0.5 μg/mL
  viability at 72 h: 113%
[1]; drug conc. 2 μg/mL
  viability at 72 h: 110%
[1]; drug conc. 10 μg/mL
  viability at 72 h: 104%
[1]; drug conc. 50 μg/mL
  viability at 72 h: 93%
[1]; drug conc. 200 μg/mL
  viability at 72 h: 84%
Uninfected H9 cells; drug conc. 0.1 μg/mL
  Toxicity: non-T
Uninfected H9 cells; drug conc. 0.5 μg/mL
  Toxicity: non-T
Uninfected H9 cells; drug conc. 2 μg/mL
  Toxicity: non-T
Uninfected H9 cells; drug conc. 10 μg/mL
  Toxicity: non-T
Uninfected H9 cells; drug conc. 50 μg/mL
  Toxicity: non-T
Uninfected H9 cells; drug conc. 200 μg/mL
  Toxicity: non-T

## O=C(O)P(=O)(O)O [PFA, phosphonoformic acid]
HSV-2 DNA polymerase; HSV-2, "activated" DNA, read-out: ID50 (the source's name)
  IC50: 0.7 µM
EBV DNA polymerase; EBV, "activated" DNA, read-out: ID50 (the source's name)
  IC50: 1 µM
HV-6 polymerase; HV-6, "activated" DNA, read-out: ID50 (the source's name)
  IC50: 1 µM
Human DNA polymerase β; Pol β, 100 μM, "activated" DNA
  remaining activity at 100 µM: 89 ± 8%
Human DNA polymerase β; Pol β, "activated" DNA, read-out: ID50 (the source's name)
  IC50: > 100 µM
Human DNA polymerase δ
  % Control at 100 μM ± S.D.: 36 ± 3%
  IC50: 71 µM
HIV-1 (HTLV-IIIB); Human immunodeficiency virus 1, IIIB, H9, 72 h, drug conc. 1.9 μg/mL, % of infected untreated control p24, read-out: p24 Ave (%)
  activity at 1.9 µg/mL: 88%
HIV-1 (HTLV-IIIB); Human immunodeficiency virus 1, IIIB, H9, 72 h, drug conc. 7.5 μg/mL, % of infected untreated control p24, read-out: p24 Ave (%)
  activity at 7.5 µg/mL: 35%
HIV-1 (HTLV-IIIB); Human immunodeficiency virus 1, IIIB, H9, 72 h, drug conc. 30 μg/mL, % of infected untreated control p24, read-out: p24 Ave (%)
  activity at 30 µg/mL: 10%
HIV-1 (HTLV-IIIB); Human immunodeficiency virus 1, IIIB, H9, 72 h, drug conc. 120 μg/mL, % of infected untreated control p24, read-out: p24 Ave (%)
  activity at 120 µg/mL: -2%
HIV-1 (HTLV-IIIB); drug conc. 7.5 μg/mL
  Inhibition Score: ** (**25-49% control p24)
HIV-1 (HTLV-IIIB); drug conc. 30 μg/mL
  Inhibition Score: *** (***<25% control p24)
HIV-1 (HTLV-IIIB); drug conc. 120 μg/mL
  Inhibition Score: *** (***<25% control p24)
[1]; drug conc. 1.9 μg/mL
  viability at 72 h: 98%
[1]; drug conc. 7.5 μg/mL
  viability at 72 h: 96%
[1]; drug conc. 30 μg/mL
  viability at 72 h: 92%
[1]; drug conc. 120 μg/mL
  viability at 72 h: 102%
Uninfected H9 cells; drug conc. 1.9 μg/mL
  Toxicity: non-T
Uninfected H9 cells; drug conc. 7.5 μg/mL
  Toxicity: non-T
Uninfected H9 cells; drug conc. 30 μg/mL
  Toxicity: non-T
Uninfected H9 cells; drug conc. 120 μg/mL
  Toxicity: non-T
